We go through 38 compounds from PubChem BioAssay AID624167 (Sanford-Burnham Center for Chemical Genomics, 2012).

Assay [1] addresses PEG-3 (UniProt Q6IN02). Nature of the assay: Peg3 promoter luciferase inhibitors, potency, dose response, cell-based, HeLa, CREF/GAPDH counter-screen panel (AID 624167). Conditions: HeLa PEG-Prom luciferase reporter, overnight, CREF/GAPDH counter-screens, mean of runs.
Assay [2] relates to PEG-3. The assay is described as above. The conditions noted are these: HeLa PEG-Prom luciferase reporter, overnight, CREF/GAPDH counter-screens.
[3] abbreviates: run 1, dose range 1, individual replicate IC50 per panel.
Where [4] appears, read: run 2, dose range 1, individual replicate IC50 per panel.

The structures appear in SMILES notation. The source made the active and inactive calls.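 The calls were made as follows: active = mean IC50 for reducing PEG3 promoter reporter signal at or below a set limit, with IC50 above the limit in both counter screens; inactive = the rest, including counter screen hits.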

Sequence of PEG-3 (UniProt Q6IN02) (Q6IN02 whole entry, looked up): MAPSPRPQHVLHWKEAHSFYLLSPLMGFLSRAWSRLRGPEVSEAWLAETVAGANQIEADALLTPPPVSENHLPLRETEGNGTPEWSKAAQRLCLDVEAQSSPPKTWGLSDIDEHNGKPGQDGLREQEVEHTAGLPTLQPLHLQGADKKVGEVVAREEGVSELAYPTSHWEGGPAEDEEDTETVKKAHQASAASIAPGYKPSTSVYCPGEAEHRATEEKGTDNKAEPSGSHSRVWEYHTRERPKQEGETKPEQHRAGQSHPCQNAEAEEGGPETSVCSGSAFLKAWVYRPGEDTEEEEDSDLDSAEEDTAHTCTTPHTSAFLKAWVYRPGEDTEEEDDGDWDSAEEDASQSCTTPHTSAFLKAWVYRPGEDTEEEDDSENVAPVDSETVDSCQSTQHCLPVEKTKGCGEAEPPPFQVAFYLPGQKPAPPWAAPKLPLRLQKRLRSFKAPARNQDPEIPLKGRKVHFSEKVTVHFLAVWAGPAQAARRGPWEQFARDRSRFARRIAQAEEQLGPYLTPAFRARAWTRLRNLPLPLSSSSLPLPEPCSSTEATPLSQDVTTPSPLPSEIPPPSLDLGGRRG

In general, IC50 refers to the concentration that gives 50% inhibition. Consider `CCn1cc(CN2CCC(C(=O)Nc3cccc(-c4cccc(Cl)c4)c3)CC2)cn1`, for which the IC50 at PEG-3 [1] was 16.8 µM; in the assay on PEG-3 [2] (setting [3]), 19.3 µM; with PEG-3 [2] (setting [4]), 14.4 µM.
Take `Cc1cc(C)c2ccc(N)nc2c1O`: the IC50 at PEG-3 [1] was 15.3 µM; with PEG-3 [2] (setting [3]), 7.69 µM; in the assay with PEG-3 [2] (setting [4]), 22.9 µM.
Regarding `NC(=O)c1nsc(C(=O)N(c2ccccc2F)C(C(=O)NCc2ccccc2)c2ccc(O)cc2)c1N` (centres undefined), the IC50 result at PEG-3 [1] is “inactive”. The figures for the IC50 in the assay on PEG-3 [2] (setting [3]) and in the assay with PEG-3 [2] (setting [4]) were 39.4 µM and over 100 µM, respectively.
As to `Cc1nc(-c2ccc(F)cc2)c(CC(=O)N(C)CC(=O)Nc2ccc(Cl)c(C(F)(F)F)c2)s1`, the IC50 result at PEG-3 [1] was “inactive”. For the same compound, the IC50 was found to be 26 µM in the assay on PEG-3 [2] (setting [3]) and 33.8 µM with PEG-3 [2] (setting [4]).
With `Cc1ccc(N(Cc2cc(=O)[nH]c3ccccc23)C(=O)CCl)c(C)c1`, on PEG-3 [1], the IC50 entry was “inactive”. Also, the IC50 turned out to be 22.9 µM with PEG-3 [2] (setting [3]) and 29.4 µM in the assay with PEG-3 [2] (setting [4]).
`COc1cc(/C=C/[N+](=O)[O-])ccc1OC(=O)/C=C/c1ccc(F)cc1`: the IC50 at PEG-3 [1] is > 100 µM (inactive); with PEG-3 [2] (setting [3]) it was over 100 µM; with PEG-3 [2] (setting [4]) it was over 100 µM.
With `COc1cccc(NC(=O)Nc2cccc(C(=O)O)c2)c1`, on PEG-3 [1], the IC50 entry was “inactive”. Besides, the results for the IC50 with PEG-3 [2] (setting [3]) and with PEG-3 [2] (setting [4]) were 15.1 µM and 30 µM, respectively.
With `O=C(c1ccoc1)N1CCN(c2cc(-c3ccccc3)nc3cc(-c4ccccc4)nn23)CC1`, the figures for the IC50 on PEG-3 [1], in the assay on PEG-3 [2] (setting [3]) and with PEG-3 [2] (setting [4]) were 11.5 µM, 13.3 µM and 9.7 µM, respectively.
For `CC(C)(C)n1nnnc1C(CCc1ccccc1)N1CCC(n2c(=O)[nH]c3ccccc32)CC1` (centres undefined), in that order: “inactive”, 18.3 µM and 24.7 µM.
`COc1ccccc1NC(=O)c1cc(-c2cc(OC)c(OC)c(OC)c2)nc2ccccc12`: the values for the IC50 on PEG-3 [1], in the assay with PEG-3 [2] (setting [3]) and with PEG-3 [2] (setting [4]) were 15.2 µM, 27.3 µM and 3.16 µM, respectively.
With `COc1ccc(-c2cc(C(=O)N3CCN(c4ccccc4F)CC3)c3ccccc3n2)c(OC)c1`, the results for the IC50 on PEG-3 [1], in the assay on PEG-3 [2] (setting [3]) and in the assay on PEG-3 [2] (setting [4]) were 11 µM, 9.03 µM and 13 µM, respectively.
For `CC(=O)c1c(NCCc2ccccc2)nc(=S)n(-c2ccccc2)c1C`, in that order: 13.8 µM, 17.2 µM and 10.3 µM.
On the same counts, the results for `CCc1cccc(CC)c1NC(=S)NCCc1c(C)[nH]c2ccc(C)cc12` are “inactive”, 29.6 µM and 13.8 µM.
`CC(C)c1ccc(NC(=O)Nc2nc(C(C)N)cs2)cc1` (centres undefined): the half-maximal inhibitory concentration (IC50) on PEG-3 [1] is 17 µM; with PEG-3 [2] (setting [3]), 20.1 µM; with PEG-3 [2] (setting [4]) it was 13.8 µM.
As for `c1cncc(-c2nc(NCC3COc4ccccc4O3)c3ccccc3n2)c1` (centres undefined), the IC50 entry on PEG-3 [1] was “inactive”. Besides, the 50% inhibitory concentration (IC50) came out at 20.1 µM in the assay with PEG-3 [2] (setting [3]) and 38.6 µM in the assay with PEG-3 [2] (setting [4]).
For the compound `CCCOc1ccc(NC(=O)CC2C(=O)N(CC)C(=S)N2CCCN2CCN(Cc3ccccc3)CC2)cc1` (centres undefined), the values for the IC50 on PEG-3 [1], in the assay with PEG-3 [2] (setting [3]) and with PEG-3 [2] (setting [4]) were 18.9 µM, 20.6 µM and 17.2 µM, respectively.
For `CN(C)c1ccc(C(C(=O)NCc2ccccc2)N(Cc2ccco2)C(=O)c2snc(C(N)=O)c2N)cc1` (centres undefined), in that order: > 100 µM (inactive), over 100 µM and over 100 µM.
For `CCOC(=O)c1c(NC(C)=O)sc2c(OCC(O)CNC(C)(C)C)c(Br)ccc12` (centres undefined), in that order: 13.6 µM, 18 µM and 9.14 µM.
For `CCOc1ccc(Nc2c3ccccc3nc3ccccc23)cc1`, in that order: 16.9 µM, 21.9 µM and 11.9 µM.
In the case of `CCC(C)NCCOCCOc1ccc(Cl)c2ccccc12` (centres undefined), the values for the IC50 at PEG-3 [1], in the assay on PEG-3 [2] (setting [3]) and with PEG-3 [2] (setting [4]) were 18.1 µM, 18.6 µM and 17.5 µM, respectively.
On the same counts, the results for `COc1cc(/C=C/c2ccc3cccc(O)c3n2)c(Br)cc1O` are “inactive”, 63.2 µM and 42.7 µM.
On the same counts, the results for `COc1ccc2c(c1OC)C(=O)N1c3ccccc3C(=O)N(c3ccccc3F)C21` (centres undefined) are 13.4 µM, 15.1 µM and 11.6 µM.
For `O=C(C=Cc1ccccn1)c1ccccc1`, the IC50 on PEG-3 [1] was 16.6 µM; in the assay with PEG-3 [2] (setting [3]), 20.7 µM; in the assay on PEG-3 [2] (setting [4]) it was 12.5 µM.
`OCCNCc1cc(Br)ccc1OCc1ccc(Cl)cc1Cl`: the IC50 at PEG-3 [1] is 17.4 µM; with PEG-3 [2] (setting [3]) it was 16.9 µM; in the assay on PEG-3 [2] (setting [4]), 17.9 µM.
As to `CCCC(=O)NC(c1cccc([N+](=O)[O-])c1)c1ccc2cccnc2c1O` (centres undefined), the IC50 on PEG-3 [1] was 11.1 µM; in the assay on PEG-3 [2] (setting [3]), 3.15 µM; in the assay with PEG-3 [2] (setting [4]) it was 19 µM.
On the same counts, the results for `COc1ccc(-n2nnnc2C(C2CC2)N2CCC(n3c(=O)[nH]c4ccccc43)CC2)cc1` (centres undefined) are “inactive”, 58.3 µM and 14.7 µM.
On the same counts, the results for `Cc1noc(-c2ccc(Cl)cc2)c1C(=O)O/N=C(\N)c1ccc(C(C)(C)C)cc1` are 13.2 µM, 17.3 µM and 9.17 µM.
For `CC(C)CC(N)c1csc(Nc2ccc(C(=O)N(C)Cc3ccccc3)cn2)n1` (centres undefined), in that order: “inactive”, 14.2 µM and 29 µM.
As to `Cc1ccc(C(=O)N2CCN(c3ccc([N+](=O)[O-])c(NCc4cccnc4)c3)CC2)cc1`, the results for the IC50 on PEG-3 [1], in the assay on PEG-3 [2] (setting [3]) and in the assay with PEG-3 [2] (setting [4]) were 16.7 µM, 10.6 µM and 22.7 µM, respectively.
For `Cc1cc(C)c(CN2CCN(CCCn3cnc(C(=O)Nc4ccc(C)c(C)c4)n3)CC2)c(C)c1`, in that order: 16.1 µM, 19 µM and 13.1 µM.
On the same counts, the results for `Cc1cc(C)nc(NC(=O)c2c(F)c(F)c(F)c(C(=O)Nc3cc(C)cc(C)n3)c2F)c1` are 19.8 µM, 20.1 µM and 19.5 µM.
On the same counts, the results for `COc1ccccc1CN(C)C(=O)c1cc(-c2cccs2)nc2ccccc12` are 13.5 µM, 14.3 µM and 12.7 µM.
Take `Cc1cccc(CN2C(=O)[C@H]3Cc4c([nH]c5ccccc45)C(C)(C)N3C2=O)c1`: the IC50 entry at PEG-3 [1] was “inactive”. Besides, the IC50 in the assay with PEG-3 [2] (setting [3]) worked out at 29.9 µM; in the assay with PEG-3 [2] (setting [4]), 28.6 µM.
On the same counts, the results for `COc1ccc(CCNC(=O)c2cc3c(=O)n4ccccc4nc3n(C3CCCCC3)c2=N)cc1` are > 100 µM (inactive), over 100 µM and over 100 µM.
On the same counts, the results for `COCc1ccc(CN2CCC(C(=O)Nc3cccc(-c4cccc(Cl)c4)c3)CC2)o1` are 13.3 µM, 16.8 µM and 9.78 µM.
Take `O=C(Nc1ccc(S(=O)(=O)NC2=NCCCCC2)cc1)c1ccc([N+](=O)[O-])s1`: the IC50 was 15.4 µM on PEG-3 [1], 19.2 µM with PEG-3 [2] (setting [3]) and 11.7 µM in the assay on PEG-3 [2] (setting [4]).
For `CCN(CC)CCSc1nnc2c3cc(C)ccc3n(Cc3ccccc3)c2n1`, in that order: “inactive”, 30.6 µM and 93.6 µM.
On the same counts, the results for `CC(=O)Nc1ccc(S(=O)(=O)N(Cc2cccnc2)Cc2cc3ccccc3[nH]c2=O)cc1` are > 100 µM (inactive), over 100 µM and over 100 µM.
